Test results reported in patent US20100075907A1, “NEUROMEDIN U RECEPTOR AGONISTS AND USES THEREOF” (priority 2006, published 2010).
Starred links: 1 amine or outer side, 2 acyl side, 3 side chain; linkers in the order of their positions; H or OH if unused. Non-standard residues stand in square brackets, D forms with d. Residues, ends and D or L forms follow the SMILES beside them. *: point of attachment. X2 = CCN1C(=O)CC(SC[C@H](NC(C)=O)C(=O)NCCCOCCOCCOCCCN*)C1=O; Succinimide(1-Et,3-yl) = CCN1C(=O)CC(*)C1=O; Palmitoyl = CCCCCCCCCCCCCCCC(=O)*; Suc = O=C(CCC(=O)[*:2])[*:1]

Assays:
rat NMUR1-TTG = target: T1, rat NMUR1-TTG (Rattus norvegicus, UniProt Q9JJI5); assay: FLIPR calcium mobilization assay, rat NMUR1-TTG; format: cell-based; design: expressed in transfected cells; host or cells: FLP-In CHO or HEK-293 FLP-In cells (pcDNA5); conditions: for EC50: FLIPR
T1 sequence (Q9JJI5 1-425): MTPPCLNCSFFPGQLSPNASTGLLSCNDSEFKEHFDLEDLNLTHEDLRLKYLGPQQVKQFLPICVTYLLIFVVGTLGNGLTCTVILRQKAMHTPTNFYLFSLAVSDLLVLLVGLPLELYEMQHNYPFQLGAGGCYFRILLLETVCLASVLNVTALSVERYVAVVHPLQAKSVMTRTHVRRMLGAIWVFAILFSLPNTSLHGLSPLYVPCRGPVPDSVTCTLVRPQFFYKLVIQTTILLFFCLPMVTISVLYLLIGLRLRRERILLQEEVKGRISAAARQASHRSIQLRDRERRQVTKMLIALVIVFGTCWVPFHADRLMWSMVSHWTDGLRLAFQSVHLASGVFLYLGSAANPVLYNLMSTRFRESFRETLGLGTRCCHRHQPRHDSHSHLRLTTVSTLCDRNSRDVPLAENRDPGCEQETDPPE
Description: Human, mouse or rat cDNAs encoding NMUR1 or NMUR2 (as described in Howard et al. Nature 406: 70-74 (2000) were subcloned in pcDNA5 (Invitrogen) and transfected into FLP-In CHO cells and HEK-293 FLP-In cells purchased from Invitrogen (Carlsbad, Calif.) using lipofectamine (Invitrogen). The Flp-In system allows integration and expression of a particular gene of interest at a specific genomic location utilizing the Flp recombinase from yeast. The transfected cells were selected by growth in medium containing 200 μg/mL hygromycin (Invitrogen). Populations were frozen at early passage numbers, and these stocks were used for further studies. Stable clones that expressed the mRNAs were identified functionally by FLIPR as well as by RT-PCR. […] Two different rodent NMUR1 cell lines were thus generated: one with the codon as predicted from the genomic databases and another cell line with an engineered methionine (ATG) as the start codon. Additionally, stable cell lines expressing the human receptors were generated in HEK-293/aeq17 cells which stably express the aequorin gene under the CMV promoter. The human NMUR2 cDNA was cloned into pcDNA3.1 and human NMUR1 was subcloned into pIRES-puro (Clontech, Mountain View, Calif.), after transfection cells were selected in media containing G418 and either hygromycin (NMUR2) or puromycin (NMUR1).
The NMU receptors signal primarily through Gαq/11 proteins; therefore calcium mobilization assays can be utilized for functional activity.
Stable cell lines expressing human and or rodent NMUR1 or human NMUR2 receptors were plated at a density of 12,000 cells per well overnight on poly-lysine coated 384-well black-walled plates. The following day, the media was removed from the plates and the cells were subsequently loaded with Fluo-3 (Molecular Probes), a calcium sensitive dye, diluted in FLIPR buffer (1× Hank's buffered saline containing 20 mM HEPES, 0.1% BSA, 2.5 mM probenecid (Sigma) and 1.6 mM TR40). All reagents are from Invitrogen unless otherwise noted. Peptide stocks were resuspended in DMSO at a stock concentration of 2 mM and diluted in FLIPR buffer on the day of the experiment to a 4 μM working stock solution.
After a 90 minute incubation at room-temperature, cell plates were loaded onto a FLIPR (Molecular Devices) to monitor cellular fluorescence (excitation=488 nm; emission=540 nm) before and after compound/peptide addition. Eight to twelve point dose responses were tested on NMUR-expressing cell lines using FLIPR with 1 μM peptide as the highest dose. The response after peptide addition was taken as the maximum fluorescence units minus the fluorescence immediately prior to stimulation for each well. EC50 values were calculated using GraphPad Prism (San Diego, Calif.) software.
In vitro responses of Neuromedin U receptor agonists (NMU1 to NMU25) in the FLIPR assay for human (Table 3), mouse (Table 4) and rat (Table 5) NMUR1 and NMUR2. EC50s are reported in nM values. Percent activity refers to the maximum response at 1 μM compared to the hNMU-25 response at the same concentration. NT=not tested.

hNMUR2 = hNMUR2 (Homo sapiens, UniProt Q9GZQ4); assay: 125I-hNMU-25 binding assay, human NMUR2 membranes; design: expressed in transfected cells; host or cells: HEK-293 FLP-In cells (pcDNA5); HEK-293/aeq17 lines (pcDNA3.1) were also made; % inhibition of NMU-25 binding / % Activity: concentration or dose not given beside the values
Chain of hNMUR2 (Q9GZQ4 whole entry): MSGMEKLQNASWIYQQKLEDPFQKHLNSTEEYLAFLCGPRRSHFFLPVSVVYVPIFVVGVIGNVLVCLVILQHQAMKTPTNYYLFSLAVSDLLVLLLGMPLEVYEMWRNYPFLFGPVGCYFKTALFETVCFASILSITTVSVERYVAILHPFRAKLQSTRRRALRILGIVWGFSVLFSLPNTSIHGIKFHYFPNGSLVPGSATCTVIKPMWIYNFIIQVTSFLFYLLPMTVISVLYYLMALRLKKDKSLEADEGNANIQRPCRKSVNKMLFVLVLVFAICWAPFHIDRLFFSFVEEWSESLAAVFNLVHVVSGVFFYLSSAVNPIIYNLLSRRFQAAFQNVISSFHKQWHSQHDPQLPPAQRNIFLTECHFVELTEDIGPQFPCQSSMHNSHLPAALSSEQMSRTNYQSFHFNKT
Procedure: Confluent cell monolayers expressing NMU receptors (the HEK cells described above) were harvested with phosphate buffered saline, collected by centrifugation, and resuspended in membrane buffer (50 mM TrisCl pH 7.4, 5 mM MgCl2, 1× Protease Inhibitor Cocktail, 10 μM phosphoramidon). After the cell pellet was homogenized, the solution was centrifuged at 18,000 rpm for 20 minutes at 4° C. The pellet was resuspended in membrane buffer to yield a final concentration of 0.5-5 μg/μL of membrane and stored at −80° C.
Experiments were performed in assay buffer (25 mM TrisCl, pH 7.4, 10 mM MgCl2, 2 mM EDTA, 1× Protease Inhibitor Cocktail, 100 μg/mL Bacitricin, 10 μM phosphoramidon) in 200 μL volumes in a 96-well format using 2-5 μg of membrane and 0.1 nM ^125I-hNMU-25 (about 12,000 cpm/well). For non-specific binding, 1 μM hNMU-25 was added. About 5 μL of peptides were added to measure antagonist activity, and the entire reaction was incubated at room temperature with shaking for 80 minutes. The reaction was terminated by rapid filtration through 0.3% poly-ethylenimine presoaked Millipore 96-well filter plates and washed with ice-cold buffer (5 mM TrisCl pH 7.4, 10 mM MgCl2, 2.5 mM EDTA, 0.04% Triton X-100). Plates were air-dried overnight at room temperature and recovered radioactivity was determined by standard scintillation counting. IC50 values were determined using GraphPad Prism software.
Concentration-response curves and radioligand-binding data were fitted using Prism (GraphPad Software). Results are summarized below in Tables 8 and 9.

[1] = maximum response at 1 μM compared to hNMU-25, rat NMUR1-TTG

Compound | % Activity (rat NMUR1-TTG; [1]) [%] | EC50 (rat NMUR1-TTG; rat NMUR1-TTG) [nM] | further results
CCN1C(=O)CC(SC[C@H](NC(C)=O)C(=O)N[C@@H](C)C(=O)N[C@@H](CO)C(=O)N[C@@H](CCC(N)=O)C(=O)N[C@@H](CO)C(=O)N[C@@H](CCCNC(=N)N)C(=O)NCC(=O)N[C@@H](Cc2ccc(O)cc2)C(=O)N[C@@H](Cc2ccccc2)C(=O)N[C@@H](CC(C)C)C(=O)N[C@@H](Cc2ccccc2)C(=O)N[C@@H](CCCNC(=N)N)C(=O)N2CCC[C@H]2C(=O)N[C@@H](CCCNC(=N)N)C(=O)N[C@@H](CC(N)=O)C(N)=O)C1=O (stereo partly shown) [NMU17] (Ac-C(Succinimide(1-Et,3-yl))ASQSRGYFLFRPRN-NH2) | 105.3 | – | –
CCCCCCCCCCCCCCCC(=O)N[C@@H](CSC1CC(=O)N(CC)C1=O)C(=O)N[C@@H](Cc1ccccc1)C(=O)N[C@@H](CCCNC(=N)N)C(=O)N[C@H](C(=O)N[C@@H](CC(=O)O)C(=O)N[C@@H](CCC(=O)O)C(=O)N[C@@H](CCC(=O)O)C(=O)N[C@@H](Cc1ccccc1)C(=O)N[C@@H](CCC(N)=O)C(=O)N[C@@H](CO)C(=O)N1CCC[C@H]1C(=O)N[C@@H](Cc1ccccc1)C(=O)N[C@@H](C)C(=O)N[C@@H](CO)C(=O)N[C@@H](CCC(N)=O)C(=O)N[C@@H](CO)C(=O)N[C@@H](CCCNC(=N)N)C(=O)NCC(=O)N[C@@H](Cc1ccc(O)cc1)C(=O)N[C@@H](Cc1ccccc1)C(=O)N[C@@H](CC(C)C)C(=O)N[C@@H](Cc1ccccc1)C(=O)N[C@@H](CCCNC(=N)N)C(=O)N1CCC[C@H]1C(=O)N[C@@H](CCCNC(=N)N)C(=O)N[C@@H](CC(N)=O)C(N)=O)C(C)C (stereo partly shown) [NMU24] (Palmitoyl-C(Succinimide(1-Et,3-yl))FRVDEEFQSPFASQSRGYFLFRPRN-NH2) | 67.7 | – | –
CC(C)C[C@@H](NC(=O)[C@H](Cc1ccccc1)NC(=O)[C@H](Cc1ccc(O)cc1)NC(=O)CNC(=O)[C@H](CCCNC(=N)N)NC(=O)[C@H](CO)NC(=O)[C@H](CCC(N)=O)NC(=O)[C@H](CO)NC(=O)[C@H](C)NC(=O)[C@H](Cc1ccccc1)NC(=O)[C@@H]1CCCN1C(=O)[C@H](CO)NC(=O)[C@H](CCC(N)=O)NC(=O)[C@H](Cc1ccccc1)NC(=O)[C@H](CCC(=O)O)NC(=O)[C@H](CCC(=O)O)NC(=O)[C@H](CC(=O)O)NC(=O)[C@@H](NC(=O)[C@H](CCCNC(=N)N)NC(=O)[C@@H](N)Cc1ccccc1)C(C)C)C(=O)N[C@@H](Cc1c[nH]c2ccccc12)C(=O)N[C@@H](CCCNC(=N)N)C(=O)N1CCC[C@H]1C(=O)N[C@@H](CCCNC(=N)N)C(=O)N[C@@H](CC(N)=O)C(N)=O [Agonist H] (H-FRVDEEFQSPFASQSRGYF[dL]WRPRN-NH2; N-terminus assumed) | – | – | % Activity (hNMUR2; Table 8, HEK-hR2, binding): 7%; IC50 (hNMUR2; binding, human R2): 782 nM; % inhibition of NMU-25 binding (hNMUR2; human R2): 7%; % Activity (rat NMUR1-TTG; functional, rat R1-TTG, relative to native hNMU responses): 91%
Ac-C4-C4-FRVDEEFQSPFASQSRGYFLFRPRN-CONH2 ({Ac-C(PEG 20 kDa)-C(PEG 20 kDa)}-FRVDEEFQSPFASQSRGYFLFRPRN-NH2) [NMU23, C4 = Cys(PEG)20 kDa] | 39.8 | – | –
CCN1C(=O)CC(SC[C@H](NC(C)=O)C(=O)N[C@@H](CSC2CC(=O)N(CC)C2=O)C(=O)N[C@@H](Cc2ccccc2)C(=O)N[C@@H](CCCNC(=N)N)C(=O)N[C@H](C(=O)N[C@@H](CC(=O)O)C(=O)N[C@@H](CCC(=O)O)C(=O)N[C@@H](CCC(=O)O)C(=O)N[C@@H](Cc2ccccc2)C(=O)N[C@@H](CCC(N)=O)C(=O)N[C@@H](CO)C(=O)N2CCC[C@H]2C(=O)N[C@@H](Cc2ccccc2)C(=O)N[C@@H](C)C(=O)N[C@@H](CO)C(=O)N[C@@H](CCC(N)=O)C(=O)N[C@@H](CO)C(=O)N[C@@H](CCCNC(=N)N)C(=O)NCC(=O)N[C@@H](Cc2ccc(O)cc2)C(=O)N[C@@H](Cc2ccccc2)C(=O)N[C@@H](CC(C)C)C(=O)N[C@@H](Cc2ccccc2)C(=O)N[C@@H](CCCNC(=N)N)C(=O)N2CCC[C@H]2C(=O)N[C@@H](CCCNC(=N)N)C(=O)N[C@@H](CC(N)=O)C(N)=O)C(C)C)C1=O (stereo partly shown) [NMU22] (Ac-C(Succinimide(1-Et,3-yl))C(Succinimide(1-Et,3-yl))FRVDEEFQSPFASQSRGYFLFRPRN-NH2) | 96.4 | – | –
Ac-C4FRVDEEFQSPFASQSRGYFLFRPRN-CONH2 ({Ac-C(PEG 20 kDa)}-FRVDEEFQSPFASQSRGYFLFRPRN-NH2) [NMU21, C4 = Cys(PEG)20 kDa] | 77.5 | 220 | –
Pam-C2FRVDEEFQSPFASQSRGYFLFRPRN-CONH2 ({Palmitoyl-C(PEG 40 kDa)}-FRVDEEFQSPFASQSRGYFLFRPRN-NH2) [NMU25, Pam = palmitoyl; C2 = Cys(PEG)240 kDa] | 93.5 | 81 | –
CCN1C(=O)CC(SC[C@H](NC(C)=O)C(=O)N[C@@H](Cc2ccccc2)C(=O)N[C@@H](CCC(N)=O)C(=O)N[C@@H](CO)C(=O)N2CCC[C@H]2C(=O)N[C@@H](Cc2ccccc2)C(=O)N[C@@H](C)C(=O)N[C@@H](CO)C(=O)N[C@@H](CCC(N)=O)C(=O)N[C@@H](CO)C(=O)N[C@@H](CCCNC(=N)N)C(=O)NCC(=O)N[C@@H](Cc2ccc(O)cc2)C(=O)N[C@@H](Cc2ccccc2)C(=O)N[C@@H](CC(C)C)C(=O)N[C@@H](Cc2ccccc2)C(=O)N[C@@H](CCCNC(=N)N)C(=O)N2CCC[C@H]2C(=O)N[C@@H](CCCNC(=N)N)C(=O)N[C@@H](CC(N)=O)C(N)=O)C1=O (stereo partly shown) [NMU19] (Ac-C(Succinimide(1-Et,3-yl))FQSPFASQSRGYFLFRPRN-NH2) | 100 | – | –
Ac-C2FQSPFASQSRGYFLFRPRN-CONH2 ({Ac-C(PEG 40 kDa)}-FQSPFASQSRGYFLFRPRN-NH2; not fully specified; printed as Ac-C2FQSPFASQSRGYFLFRPRN-CONH2) [NMU20, C2 = Cys(PEG)240 kDa] | 93.8 | 24.4 | –
CCN1C(=O)CC(SC[C@H](NC(C)=O)C(=O)NCCCOCCOCCOCCCNC(=O)CCC(=O)N[C@@H](Cc2ccccc2)C(=O)N[C@@H](CC(C)C)C(=O)N[C@@H](Cc2ccccc2)C(=O)N[C@@H](CCCNC(=N)N)C(=O)N2CCC[C@H]2C(=O)N[C@@H](CCCNC(=N)N)C(=O)N[C@@H](CC(N)=O)C(N)=O)C1=O (stereo partly shown) [NMU15, Ac-C1-Ttds-FLFRPRN-CONH2] ({X2-Suc}-FLFRPRN-NH2) | 107.5 | – | –
